Data on 22 compounds can be found in ChEMBL document CHEMBL4219125, “Small molecule modulators of PCSK9 - A literature and patent overview” (Bioorg Med Chem Lett, 2018).

Square brackets hold non-standard residues; d marks the D form. Peptide text beside a SMILES is read from it. hArg = N=C(N)NCCCC[C@H](N)C(=O)O

The target of data set [1] is T1, Proprotein convertase subtilisin/kexin type 9 (Homo sapiens, UniProt Q8NBP7). The experiment in a line: Inhibition of recombinant PCSK9 (unknown origin) expressed in human HepG2 cells assessed as increase in LDL uptake at 0.31 uM after 16 hrs by fluorescence assay. Format: cell-based. More on the design: scale not given: the % may be the effect or the level left.

Data set [2] addresses T1, Proprotein convertase subtilisin/kexin type 9. The experiment in a line: Inhibition of recombinant PCSK9 (unknown origin) expressed in human HepG2 cells assessed as increase in LDL uptake at 10 uM after 16 hrs by fluorescence assay. More on the design: scale not given: the % may be the effect or the level left. Format: cell-based.
For data set [3] the target is unchanged. The experiment in a line: Inhibition of recombinant PCSK9 (unknown origin) expressed in human HepG2 cells assessed as increase in LDLR expression levels relative to control. Format: cell-based. More on the design: scale not given: the % may be the effect or the level left.
The subject of data set [4] is Mus musculus. The experiment in a line: Reduction in plasma total cholesterol level in C57BL/6 mouse at 4 mg/kg, sc administered once daily for 2 weeks with high fat diet by enzymatic method relative to untreated control. More on the design: scale not given: the % may be the effect or the level left. Format: functional.
For data set [5], the target named is T1, Proprotein convertase subtilisin/kexin type 9. The data set is described as follows: Inhibition of binding of full-length recombinant human PCSK9 (M1 to Q692 residues) expressed in HEK293 cells to full-length LDLR (A1 to A699 residues) by SPR analysis.
For data set [6] the target is unchanged. The data set is described as follows: Inhibition of PCSK9 (unknown origin) at 1.25 uM.
Data set [7] has the same target. The data set is described as follows: Inhibition of PCSK9 in human HuH7 cells assessed as increase in cell surface LDLR expression level at 100 uM by FACS analysis relative to control. Format: cell-based. More on the design: scale not given: the % may be the effect or the level left. On the technique in general: In flow cytometry, cells or beads pass a laser one at a time.

For data set [8] the target is unchanged. The data set is described as follows: Inhibition of PCSK9 in human HuH7 cells assessed as increase in LDL uptake by FACS analysis. Format: cell-based. More on the design: scale not given: the % may be the effect or the level left.
For data set [9] the target is unchanged. The experiment in a line: Activation of PCSK9 (unknown origin) expressed in human HepG2 cells assessed as decrease in LDL uptake at 25 uM. Format: cell-based. More on the design: scale not given: the % may be the effect or the level left. The note with it: hepg2, 25 µM.
Data set [10] has the same target. The experiment in a line: Inhibition of recombinant human C-terminal His8-tagged PCSK9 expressed in Chinese hamster ovary cells by TR-FRET assay. Format: cell-based. For orientation: In TR-FRET formats the signal depends on donor and acceptor labels being close together.
For data set [11] the target is unchanged. The experiment in a line: Inhibition of recombinant PCSK9 (unknown origin) expressed in human HepG2 cells assessed as increase in LDL uptake at 1.25 uM after 16 hrs by fluorescence assay. Format: cell-based. More on the design: scale not given: the % may be the effect or the level left.
Data set [12] concerns HeLa. The data set is described as follows: Inhibition of PCSK9 expression in human HeLa cells after overnight incubation by ELISA. Format: functional, cell-based. In general terms: An ELISA detects its analyte on a solid surface through an enzyme-linked reagent.
For data set [13], the system named is Hamster. The data set is described as follows: In vivo inhibition of PCSK9 in dietary hyperlipidemia hamster model assessed as reduction in blood LDL-c level at 0.04 mg/kg, po administered daily for 7 days. Format: functional. The following applies: Cricetinae, 168 h.
The test system of data set [14] is HepG2. The experiment in a line: Inhibition of PCSK9 production in human HepG2 cells after 24 hrs by ELISA. Format: functional, cell-based. The following applies: HepG2, 24 h.
Data set [15] has as its system Hamster. The experiment in a line: In vivo inhibition of PCSK9 in dietary hyperlipidemia hamster model assessed as reduction in blood LDL-c level at 0.01 mg/kg, po administered daily for 7 days. Format: functional. The note with it: Cricetinae, 168 h.
Data set [16] has as its target T1, Proprotein convertase subtilisin/kexin type 9. The data set is described as follows: Inhibition of PCSK9 in human HepG2 cells assessed as increase in uptake of fluorescent Dil-LDL at 1.5 uM relative to control. Format: cell-based.
The target is the same in data set [17]. The data set is described as follows: Inhibition of PCSK9 in human HepG2 cells assessed as increase in uptake of fluorescent Dil-LDL at 0.37 uM relative to control. Format: cell-based.
Data set [18] has as its system Huh-7. The data set is described as follows: Inhibition of PCSK9 expression in human HuH7 cells after overnight incubation by ELISA. Format: functional, cell-based.
In data set [19] the target is T1, Proprotein convertase subtilisin/kexin type 9. The experiment in a line: Inhibition of PCSK9 (unknown origin) expressed in human HepG2 cells assessed as increase in LDL uptake at 0.5 uM. More on the design: scale not given: the % may be the effect or the level left. Format: cell-based.
The nature of data set [20]: Ratio of drug level in liver to plasma in monkey at 30 mg/kg, po. Format: ADME, organism-based, Macaca mulatta. The note with it: rhesus monkey, liver and plasma.
The target of data set [21] is T1, Proprotein convertase subtilisin/kexin type 9. The data set is described as follows: Inhibition of PCSK9 (unknown origin) expressed in human HepG2 cells assessed as increase in LDL uptake at 100 uM. Format: cell-based. More on the design: scale not given: the % may be the effect or the level left.
Data set [22] shares this target. The data set is described as follows: Inhibition of PCSK9 in human HepG2 cells assessed as increase in LDL receptor levels at 200 uM after 18 to 24 hrs by Western blot analysis relative to control. Format: cell-based.
Data set [23] deals with Rattus norvegicus. The data set is described as follows: Reduction of circulating PCSK9 level in rat plasma at 50 mg/kg, po administered daily for 14 days. Format: functional. The note with it: 336 h.
Data set [24] has as its system Rattus norvegicus. The data set is described as follows: In vivo inhibition of PCSK9 in rat plasma assessed as decrease in LDL-c level at 50 mg/kg, po administered daily for 14 days. Format: functional. The following applies: 336 h.
Data set [25] concerns Rattus norvegicus. The data set is described as follows: In vivo inhibition of PCSK9 in rat plasma assessed as decrease in total plasma cholesterol level at 50 mg/kg, po administered daily for 14 days. Format: functional. The note with it: 336 h.
Data set [26] concerns the target T1, Proprotein convertase subtilisin/kexin type 9. The experiment in a line: Binding affinity to recombinant human C-terminal His8-tagged PCSK9 expressed in Chinese hamster ovary cells by biolayer interferometry.
Data set [27] has the same target. The data set is described as follows: Inhibition of PCSK9 in human HepG2 cells assessed as increase in LDLR expression levels at 1.6 uM relative to control. Format: cell-based.

On to `Cc1cc2c(cc1-c1ccccc1F)CNCC2`, for which the Activity was 50% in data set [1], more than 100% in data set [2] and 10% in data set [3]. On to `CC(C)c1c(C(=O)Nc2ccccc2)c(-c2ccccc2)c(-c2ccc(F)cc2)n1CC[C@@H](O)C[C@@H](O)CC(=O)O` [ATORVASTATIN], for which, in data set [4], the Activity is 27%. For orientation: IC50 means the concentration needed to halve the response being measured. For `Cn1cncc1-c1ncc(-c2ncc(-c3ncc(-c4ccccc4)n3C)n2C)n1C`, in data set [5], the IC50 was determined as 11200 nM. A word on the inhibition: it is the share of the control response that was lost under treatment. Consider `O=S(=O)(Nc1cccc2c1CCCC2)c1ccc(N2CCNCC2)cc1`, for which, in data set [6], the inhibition was found to be 66%.

As for H-VTVRFW-OH, the Activity amounted to 100% in [7] and 95% in data set [8]. For the compound `O=C(N[C@H](CNc1nn[nH]n1)Cc1c[nH]c2ccccc12)[C@H](Cc1ccc(O)cc1)NC(=O)C12CC3CC(CC(C3)C1)C2`, the Activity in data set [9] was 50%.

As to `CC[C@H](C)[C@H](NC(=O)[C@H](CCCCNC(=N)N)NC(=O)[C@@H](NC(=O)[C@H](CC(C)C)NC(=O)[C@H](CC(N)=O)NC(=O)[C@H](Cc1c[nH]c2ccccc12)NC(=O)CNC(=O)[C@@H]1CCCN1C(=O)[C@H](Cc1ccccc1)NC(=O)[C@H](CO)NC(=O)[C@H](CCC(=O)O)NC(=O)[C@@H](N)CCSC)C(C)C)C(=O)NCC(=O)N[C@@H](CC(C)C)C(=O)N[C@@H](CC(C)C)C(=O)N[C@@H](CCCNC(=N)N)C(=O)O` (H-MESFPGWNLV[hArg]IGLLR-OH), in data set [10], the IC50 turned out to be 8300 nM.

For `Cc1cc2c(cc1-c1ccccc1F)C(=O)NCC2`, the Activity in data set [11] came out at 33%. In data set [6], `O=S(=O)(Nc1cccc2c1CCCC2)c1ccc(C2CCNCC2)cc1` showed an inhibition of more than 50%. `Cn1ncc(-c2ccc(C(=O)N(c3ncccc3Cl)[C@@H]3CCCNC3)cc2F)c1-c1nnn[nH]1`: in data set [12], the IC50 amounted to 3700 nM. In general, inhibition in vivo refers to how much of the control response was suppressed. `FC(F)(F)c1ccc(-c2nc3ccc(C(F)(F)F)c(Cl)c3o2)cc1`: in [13], the inhibition in vivo at 0.04 mg/kg was found to be 57%. The compound also yielded an IC50 in data set [14] of 0.036 nM. Moreover, the inhibition in vivo at 0.01 mg/kg in data set [15] is 46%. Take `CCN(CC)C(=O)c1ccc(NC(=O)CSc2nnc(-c3cccs3)n2C2CC2)cc1`: the fold change (FC) in data set [16] stood at 5; in [17] it was 3. In turn, `COc1ccc(CCC(=O)N(c2nccc3ccccc23)[C@@H]2CCCNC2)cc1` gave an IC50 in data set [18] of 2200 nM.

Take `c1ccc2c(c1)NC1CNCCC21` (centres undefined): the Activity in data set [19] was 60%. As for `CC(=O)Nc1ccc2nc(-c3ccc(C(F)(F)F)cc3)oc2c1C(F)(F)F`, the IC50 in data set [14] stood at 2.1 nM. For orientation: Kp means tissue or fluid exposure divided by exposure in the circulation. `CCOC(=O)O[C@@H](C)n1nnnc1-c1c(-c2ccc(C(=O)N(c3ncccc3Cl)[C@@H]3CCCNC3)cc2F)cnn1C` [PF-06815345]: the Kp in data set [20] was 28. In turn, `FC(F)(F)c1ccc(-c2nc3c(ccc4cc[nH]c43)o2)cc1` yielded an IC50 in data set [14] of 29.7 nM.

For the compound `CC(=O)N[C@@H](CO)C(=O)N[C@@H](COP(=O)(O)O)C(=O)N1CCC(c2ccc(C(F)(F)F)cc2)CC1`, in data set [21], the Activity was found to be 105%.

For `Cc1ccc(C(=O)Nc2ccc(S(=O)(=O)O)c3cc(S(=O)(=O)O)cc(S(=O)(=O)O)c23)cc1NC(=O)c1cccc(NC(=O)Nc2cccc(C(=O)Nc3cc(C(=O)Nc4ccc(S(=O)(=O)O)c5cc(S(=O)(=O)O)cc(S(=O)(=O)O)c45)ccc3C)c2)c1`, the fold change (FC) in data set [22] was determined as 15. For `O=C(c1ccc(-n2nnc3cccnc32)cc1)N(c1ncccc1Cl)[C@@H]1CCCNC1`, the figures for the inhibition in vivo at 50 mg/kg in data set [23], in data set [24] and in [25] were 50%, 58% and 30%, respectively. The compound also registered an IC50 in [12] of 500 nM. As a reminder, the Kd is a measure of binding affinity in units of concentration. `CC(=O)N[C@H](C(=O)N[C@H](C(=O)N[C@@H](Cc1ccccc1)C(=O)N[C@H](C(=O)N[C@@H](CO)C(=O)N[C@@H](Cc1c[nH]c2ccccc12)C(=O)N[C@@H](CCC(=O)O)C(=O)N[C@@H](CCC(=O)O)C(=O)N[C@@H](Cc1ccc(O)cc1)C(=O)N[C@@H](CC(C)C)C(=O)N[C@@H](CC(=O)O)C(=O)N[C@@H](Cc1c[nH]c2ccccc12)C(=O)N[C@H](C(N)=O)C(C)C)[C@@H](C)O)C(C)C)[C@@H](C)O`: the Kd in data set [26] came to 700 nM. In the case of `Cc1cc(C(=O)C2=C(O)C(=O)N(CCCN3CCOCC3)C2c2ccncc2)ccc1OCc1ccccc1` (centres undefined), the fold change (FC) is 8 in data set [27], 10 in data set [16] and 6 in [17]. For the same compound, the Activity in data set [4] is 32%.
